In ChEMBL document CHEMBL1151757, “Synthesis, radiosynthesis, and biological evaluation of fluorine-18-labeled 2beta-carbo(fluoroalkoxy)-3beta-(3'-((Z)-2-haloethenyl)phenyl)nortropanes: candidate radioligands for in vivo imaging of the serotonin transporter with positron emission tomography” (J Med Chem, 2008):

Experiments:
[1] = Ratio of drug uptake in pons to cerebellum in anesthetized cynomolgus monkey after 105 mins postinjection; type: ADME, organism-based, Macaca fascicularis; details: in vivo, 1.75 h
[2] = Ratio of drug uptake in pons to cerebellum in anesthetized cynomolgus monkey after 125 mins postinjection; type: ADME, organism-based, Macaca fascicularis; details: in vivo
[3] = Drug uptake in anesthetized cynomolgus monkey brain occipital lobe after 6.5 mins postinjection; type: ADME, organism-based, Macaca fascicularis; set-up: unit not given here; details: in vivo
[4] = Drug uptake in anesthetized cynomolgus monkey brain frontal lobe after 27.5 mins postinjection; type: ADME, organism-based, Macaca fascicularis; details: in vivo
Putamen [5] = test: Drug uptake in anesthetized cynomolgus monkey brain putamen after 135 mins postinjection; type: ADME, organism-based, Macaca fascicularis; details: in vivo, 2.25 h
Putamen [6] = test: Drug uptake in anesthetized cynomolgus monkey brain putamen after 215 mins postinjection; type: ADME, organism-based, Macaca fascicularis; details: in vivo
Thalamus [7] = test: Drug uptake in anesthetized cynomolgus monkey brain thalamus after 1.5 mins postinjection; type: ADME, organism-based, Macaca fascicularis; details: in vivo, 0.025 h
[8] = Ratio of drug uptake in occipital lobe to cerebellum in anesthetized cynomolgus monkey after 235 mins postinjection; type: ADME, organism-based, Macaca fascicularis; details: in vivo
[9] = Ratio of drug uptake in occipital lobe to cerebellum in anesthetized cynomolgus monkey after 185 mins postinjection; type: ADME, organism-based, Macaca fascicularis; details: in vivo
[10] = Ratio of drug uptake in occipital lobe to cerebellum in anesthetized cynomolgus monkey after 205 mins postinjection; type: ADME, organism-based, Macaca fascicularis; details: in vivo
Midbrain [11] = test: Drug uptake in anesthetized cynomolgus monkey brain midbrain after 135 mins postinjection; type: ADME, organism-based, Macaca fascicularis; details: in vivo, 2.25 h
Midbrain [12] = test: Drug uptake in anesthetized cynomolgus monkey brain midbrain after 175 mins postinjection; type: ADME, organism-based, Macaca fascicularis; details: in vivo
Pons [13] = test: Drug uptake in anesthetized cynomolgus monkey brain pons after 1.5 mins postinjection; type: ADME, organism-based, Macaca fascicularis; details: in vivo, 0.025 h
Pons [14] = test: Drug uptake in anesthetized cynomolgus monkey brain pons after 2.5 mins postinjection; type: ADME, organism-based, Macaca fascicularis; details: in vivo
Pons [15] = test: Drug uptake in anesthetized cynomolgus monkey brain pons after 18.5 mins postinjection; type: ADME, organism-based, Macaca fascicularis; details: in vivo
Pons [16] = test: Drug uptake in anesthetized cynomolgus monkey brain pons after 45 mins postinjection; type: ADME, organism-based, Macaca fascicularis; details: in vivo, 0.75 h
Pons [17] = test: Drug uptake in anesthetized cynomolgus monkey brain pons after 75 mins postinjection; type: ADME, organism-based, Macaca fascicularis; details: in vivo, 1.25 h
Pons [18] = test: Drug uptake in anesthetized cynomolgus monkey brain pons after 95 mins postinjection; type: ADME, organism-based, Macaca fascicularis; details: in vivo
Midbrain [19] = test: Drug uptake in anesthetized cynomolgus monkey brain midbrain after 195 mins postinjection; type: ADME, organism-based, Macaca fascicularis; details: in vivo, 3.25 h
Caudate [20] = test: Drug uptake in anesthetized cynomolgus monkey brain caudate after 195 mins postinjection; type: ADME, organism-based, Macaca fascicularis, Caudate nucleus; details: in vivo, 3.25 h
[21] = Ratio of drug uptake in caudate to cerebellum in anesthetized cynomolgus monkey after 95 mins postinjection; type: ADME, organism-based, Macaca fascicularis; details: in vivo
Pons [22] = test: Drug uptake in anesthetized cynomolgus monkey brain pons after 155 mins postinjection; type: ADME, organism-based, Macaca fascicularis; details: in vivo
Medulla [23] = test: Drug uptake in anesthetized cynomolgus monkey brain medulla after 15.5 mins postinjection; type: ADME, organism-based, Macaca fascicularis; details: in vivo
Medulla [24] = test: Drug uptake in anesthetized cynomolgus monkey brain medulla after 95 mins postinjection; type: ADME, organism-based, Macaca fascicularis; details: in vivo
Medulla [25] = test: Drug uptake in anesthetized cynomolgus monkey brain medulla after 145 mins postinjection; type: ADME, organism-based, Macaca fascicularis; details: in vivo
[26] = Drug uptake in anesthetized cynomolgus monkey brain cerebellum after 22.5 mins postinjection; type: ADME, organism-based, Macaca fascicularis; details: in vivo, 0.375 h
[27] = Drug uptake in anesthetized cynomolgus monkey brain cerebellum after 65 mins postinjection; type: ADME, organism-based, Macaca fascicularis; details: in vivo
Caudate [28] = test: Drug uptake in anesthetized cynomolgus monkey brain caudate after 2.5 mins postinjection; type: ADME, organism-based, Macaca fascicularis, Caudate nucleus; details: in vivo
Caudate [29] = test: Drug uptake in anesthetized cynomolgus monkey brain caudate after 6.5 mins postinjection; type: ADME, organism-based, Macaca fascicularis, Caudate nucleus; details: in vivo
Caudate [30] = test: Drug uptake in anesthetized cynomolgus monkey brain caudate after 75 mins postinjection; type: ADME, organism-based, Macaca fascicularis, Caudate nucleus; details: in vivo, 1.25 h
Caudate [31] = test: Drug uptake in anesthetized cynomolgus monkey brain caudate after 95 mins postinjection; type: ADME, organism-based, Macaca fascicularis, Caudate nucleus; details: in vivo
Putamen [32] = test: Drug uptake in anesthetized cynomolgus monkey brain putamen after 2.5 mins postinjection; type: ADME, organism-based, Macaca fascicularis; details: in vivo
[33] = Ratio of drug uptake in occipital lobe to cerebellum in anesthetized cynomolgus monkey after 18.5 mins postinjection; type: ADME, organism-based, Macaca fascicularis; details: in vivo
Thalamus [34] = test: Drug uptake in anesthetized cynomolgus monkey brain thalamus after 2.5 mins postinjection; type: ADME, organism-based, Macaca fascicularis; set-up: unit not given here; details: in vivo
Thalamus [35] = test: Drug uptake in anesthetized cynomolgus monkey brain thalamus after 4.5 mins postinjection; type: ADME, organism-based, Macaca fascicularis; set-up: unit not given here; details: in vivo, 0.075 h
Thalamus [36] = test: Drug uptake in anesthetized cynomolgus monkey brain thalamus after 6.5 mins postinjection; type: ADME, organism-based, Macaca fascicularis; set-up: unit not given here; details: in vivo
Thalamus [37] = test: Drug uptake in anesthetized cynomolgus monkey brain thalamus after 22.5 mins postinjection; type: ADME, organism-based, Macaca fascicularis; set-up: unit not given here; details: in vivo, 0.375 h
Putamen [38] = test: Drug uptake in anesthetized cynomolgus monkey brain putamen after 12.5 mins postinjection; type: ADME, organism-based, Macaca fascicularis; set-up: unit not given here; details: in vivo
Putamen [39] = test: Drug uptake in anesthetized cynomolgus monkey brain putamen after 15.5 mins postinjection; type: ADME, organism-based, Macaca fascicularis; set-up: unit not given here; details: in vivo
Putamen [40] = test: Drug uptake in anesthetized cynomolgus monkey brain putamen after 22.5 mins postinjection; type: ADME, organism-based, Macaca fascicularis; set-up: unit not given here; details: in vivo, 0.375 h
Putamen [41] = test: Drug uptake in anesthetized cynomolgus monkey brain putamen after 35 mins postinjection; type: ADME, organism-based, Macaca fascicularis; set-up: unit not given here; details: in vivo
Putamen [42] = test: Drug uptake in anesthetized cynomolgus monkey brain putamen after 55 mins postinjection; type: ADME, organism-based, Macaca fascicularis; set-up: unit not given here; details: in vivo
Thalamus [43] = test: Drug uptake in anesthetized cynomolgus monkey brain thalamus after 75 mins postinjection; type: ADME, organism-based, Macaca fascicularis; set-up: unit not given here; details: in vivo, 1.25 h
Thalamus [44] = test: Drug uptake in anesthetized cynomolgus monkey brain thalamus after 125 mins postinjection; type: ADME, organism-based, Macaca fascicularis; set-up: unit not given here; details: in vivo
Thalamus [45] = test: Drug uptake in anesthetized cynomolgus monkey brain thalamus after 225 mins postinjection; type: ADME, organism-based, Macaca fascicularis; set-up: unit not given here; details: in vivo, 3.75 h
Midbrain [46] = test: Drug uptake in anesthetized cynomolgus monkey brain midbrain after 0.5 mins postinjection; type: ADME, organism-based, Macaca fascicularis; set-up: unit not given here; details: in vivo
Midbrain [47] = test: Drug uptake in anesthetized cynomolgus monkey brain midbrain after 15.5 mins postinjection; type: ADME, organism-based, Macaca fascicularis; set-up: unit not given here; details: in vivo
Midbrain [48] = test: Drug uptake in anesthetized cynomolgus monkey brain midbrain after 22.5 mins postinjection; type: ADME, organism-based, Macaca fascicularis; set-up: unit not given here; details: in vivo, 0.375 h
Midbrain [49] = test: Drug uptake in anesthetized cynomolgus monkey brain midbrain after 35 mins postinjection; type: ADME, organism-based, Macaca fascicularis; set-up: unit not given here; details: in vivo
Midbrain [50] = test: Drug uptake in anesthetized cynomolgus monkey brain midbrain after 95 mins postinjection; type: ADME, organism-based, Macaca fascicularis; set-up: unit not given here; details: in vivo
[51] = Ratio of drug uptake in midbrain to cerebellum in anesthetized cynomolgus monkey after 135 mins postinjection; type: ADME, organism-based, Macaca fascicularis; details: in vivo, 2.25 h

O=C(OCC[18F])C1C2CCC(CC1c1ccc(/C=C\I)cc1)N2 (stereo unspecified)
Ratio [1]: 1.8
Ratio [2]: 2.1
Drug uptake [3]: 1.21
Drug uptake [4]: 1.76
Drug uptake (Putamen [5]): 4.33
Drug uptake (Putamen [6]): 3.93
Drug uptake (Thalamus [7]): 0.11
Ratio [8]: 1.6
Ratio [9]: 1.4
Ratio [10]: 1.4
Drug uptake (Midbrain [11]): 4.7
Drug uptake (Midbrain [12]): 4.61
Drug uptake (Pons [13]): 0.06
Drug uptake (Pons [14]): 0.36
Drug uptake (Pons [15]): 2.17
Drug uptake (Pons [16]): 3.09
Drug uptake (Pons [17]): 3.39
Drug uptake (Pons [18]): 3.5
Drug uptake (Midbrain [19]): 4.56
Drug uptake (Caudate [20]): 2.85
Ratio [21]: 1.4
Drug uptake (Pons [22]): 3.43
Drug uptake (Medulla [23]): 2.67
Drug uptake (Medulla [24]): 3.88
Drug uptake (Medulla [25]): 3.61
Drug uptake [26]: 2.63
Drug uptake [27]: 2.44
Drug uptake (Caudate [28]): 0.29
Drug uptake (Caudate [29]): 1.13
Drug uptake (Caudate [30]): 2.98
Drug uptake (Caudate [31]): 3.05
Drug uptake (Putamen [32]): 0.45
Ratio [33]: 0.7
Drug uptake (Thalamus [34]): 0.4
Drug uptake (Thalamus [35]): 1.21
Drug uptake (Thalamus [36]): 1.7
Drug uptake (Thalamus [37]): 2.9
Drug uptake (Putamen [38]): 2.59
Drug uptake (Putamen [39]): 2.71
Drug uptake (Putamen [40]): 3.13
Drug uptake (Putamen [41]): 3.57
Drug uptake (Putamen [42]): 4.02
Drug uptake (Thalamus [43]): 4.02
Drug uptake (Thalamus [44]): 4.04
Drug uptake (Thalamus [45]): 3.35
Drug uptake (Midbrain [46]): 0
Drug uptake (Midbrain [47]): 2.58
Drug uptake (Midbrain [48]): 3.04
Drug uptake (Midbrain [49]): 3.51
Drug uptake (Midbrain [50]): 4.6
Ratio [51]: 2.8
